The record followed here is patent publication US20200009088A1, “COMPOSITIONS AND METHODS FOR TREATING ANDROGEN-INDEPENDENT CANCER” (The Regents of the University of California, priority 2017, published 2020).

Series [1] relates to AR variants. The series is described as follows: AR variant protein degradation (cycloheximide, MG132, ubiquitin IP) in C4-2B MDVR cells. The class given is cell-based. The conditions noted are these: FIG. 16. How it is done: (§1) “AR-Variants” represents a combination of all forms of AR.
(§2) To determine if the small molecule modulators affect AR-V7 protein expression via protein degradation, CWR22Rv1 and C4-2B MDVR cells were treated with cycloheximide (CHX) and the half-life of AR-V7 protein was measured.
After 0, 2, 4, and 8 hours, whole cell lysate was collected and subjected to Western blot. Half-life of AR-V7 was then calculated.
Whole cell lysate was subsequently collected and subjected to Western blot.
Whole cell lysate was immunoprecipitated with an AR antibody and blot with ubiquitin and AR antibodies.

In the next series the test system is C4-2B AbiR cells. The experiment in a line: Cell growth assay (cell numbers), C4-2B AbiR. The class given is cell-based. The conditions noted are these: 48 hours, FIG. 7C.
Another series concerns C4-2BMDVR cells. The experiment in a line: ELISA cell death (apoptosis) assay. The class given is cell-based. The conditions noted are these: compound alone, analogs compared with niclosamide, FIG. 8. How it is done: To further examine the anti-cancer effects of these compounds, an ELISA cell death assay was performed.
A further series relates to AR-V3. The series is described as follows: PSA-luc assay in C4-2B cells, AR-V3. The class given is cell-based. The conditions noted are these: FBS, 1 μM overnight, FIG. 14C. The text has this:
C4-2B cells were cotransfected with pcDNA, with or without AR-V1, AR-V3, AR-V7, AR-V9 or AR-V12, and with PSA-E/P-luciferase plasmids in FBS condition.

In another series the test system is CWR22Rv1 cells. The experiment in a line: Cell growth assay (cell numbers), CWR22Rv1. The class given is cell-based.
Another series concerns C4-2B MDVR cells. The experiment in a line: Cell growth assay (cell numbers), C4-2B MDVR. The class given is cell-based. Particulars: C4-2B MDVR, 48 hours.
A further series deals with C4-2-V7 cells. The series is described as follows: Cell growth assay (cell numbers), C4-2-V7. The class given is cell-based. The conditions noted are these: 48 hours, FIG. 7D.
The nature of the next series: in vivo. The conditions noted are these: for Cmax: rat plasma, p.o. 200 mg/kg. On the procedure:
Blood samples were obtained at the time points indicated in FIG. 18 (0 minutes, 15 minutes, 30 minutes, 1 hour, 1.5 hours, 2 hours, 4 hours, 6 hours, 8 hours, and 24 hours) and the plasma was isolated for LC-MS analysis.

The subject of series [2] is AR variants. The experiment in a line: AR variant protein degradation (cycloheximide, MG132, ubiquitin IP) in CWR22Rv1 cells. The class given is cell-based. The conditions noted are these: FIG. 15. How it is done: as §1, §2
After 0, 2, 4, and 8 hours, whole cell lysate was collected and subjected to Western blot. The half-life of AR-V7 was then calculated.
Subsequently, the whole cell lysate was collected and subjected to Western blot.
For the data shown in FIG. 15C, CWR22Rv1 cells were treated with Nic, Compound 7, or Compound 31. Subsequently, whole cell lysate was immunoprecipitated with an AR antibody and blotted with ubiquitin and AR antibodies.

[3] abbreviates: male, Sprague-Dawley, rat, in vivo, po, 200 mg/kg.
Where [4] appears, read: male, Sprague-Dawley, rat, plasma, po, 200 mg/kg.

With `O=C(Nc1ccc([N+](=O)[O-])cc1Cl)c1cc(Cl)ccc1O` [niclosamide, (5-chloro-N-2-chloro-4-nitro-phenyl)-2-hydroxybenzamide, reference compound], the “AR variant degradation via the proteasome-ubiquitination system” value with AR variants [1] and with AR variants [2] was “degraded” in each case. Besides, the “cell proliferation, combination with enzalutamide (MDV)” value with C4-2B AbiR cells (0.5 μM + enzalutamide) is listed as “further inhibited”; with CWR22Rv1 cells (CWR22Rv1, 0.5 μM + enzalutamide, 48 hours, FIG. 7A), “further inhibited”; in the series on C4-2B MDVR cells (0.5 μM + enzalutamide, FIG. 7B) it was “further inhibited”; with C4-2-V7 cells (C4-2-V7, 0.5 μM + enzalutamide) it was “further inhibited”. Besides, the cell growth entry in the series with C4-2B AbiR cells (0.5 μM) is “significantly inhibited”; with CWR22Rv1 cells (CWR22Rv1, 0.5 μM, 48 hours, FIG. 7A), “significantly inhibited”; in the series with CWR22Rv1 cells (CWR22Rv1, 48 hours, increasing doses of niclosamide/analogs, FIG. 6) it was “able to inhibit cell growth in a dose-dependent manner”; in the series with C4-2B MDVR cells (0.5 μM, FIG. 7B), “significantly inhibited”; in the series on C4-2B MDVR cells (increasing doses of niclosamide/analogs, FIG. 6), “able to inhibit cell growth in a dose-dependent manner”; in the series on C4-2-V7 cells (C4-2-V7, 0.5 μM), “significantly inhibited”. For the same compound, in the series on C4-2BMDVR cells, the cell apoptosis entry was “significantly induced”. Besides, the “AR-V3-mediated PSA-luc activity” value with AR-V3 is “inhibited”. In the series “in vivo” (setting [3]), the “AUC_% Extrap_obs” value was 3.67 +/− 3.73%. Moreover, in “in vivo” (setting [3]), the HL_Lambda_z is 328.09 ± 173.05 min. Besides, in the series “in vivo” (setting [4]), the AUC(0-inf) (commonly the area under the concentration-time curve extrapolated to infinity) was 28.4 µM·h. The exposure AUC(0-t) – broadly, exposure summed from dosing to a finite time, without extrapolation to infinity – in the series “in vivo” (setting [4]) is 4.14 µM·h. In addition, the time to peak (Tmax) (as a rule, the time from dosing to the highest level) in the series “in vivo” (setting [4]) was 25 min. Moreover, the Cmax – broadly, the maximum level reached in the sampled fluid or tissue – stood at 1560 nM in the series “in vivo” (male, Sprague-Dawley, rat, plasma, po, 200 mg/kg, Cmax) and 1560 nM in the series “in vivo”.
